ChEMBL document CHEMBL1909046, “DrugMatrix in vitro pharmacology data”

Columns and labels:
[1] = biological target: T1, Alpha-1D adrenergic receptor (Homo sapiens, UniProt P25100); type: cell membranes, HEK293, Membrane; settings: hek293; also: in other assays of this panel Not Active means under 50% inhibition at 10 µM
T1 sequence (P25100 whole entry): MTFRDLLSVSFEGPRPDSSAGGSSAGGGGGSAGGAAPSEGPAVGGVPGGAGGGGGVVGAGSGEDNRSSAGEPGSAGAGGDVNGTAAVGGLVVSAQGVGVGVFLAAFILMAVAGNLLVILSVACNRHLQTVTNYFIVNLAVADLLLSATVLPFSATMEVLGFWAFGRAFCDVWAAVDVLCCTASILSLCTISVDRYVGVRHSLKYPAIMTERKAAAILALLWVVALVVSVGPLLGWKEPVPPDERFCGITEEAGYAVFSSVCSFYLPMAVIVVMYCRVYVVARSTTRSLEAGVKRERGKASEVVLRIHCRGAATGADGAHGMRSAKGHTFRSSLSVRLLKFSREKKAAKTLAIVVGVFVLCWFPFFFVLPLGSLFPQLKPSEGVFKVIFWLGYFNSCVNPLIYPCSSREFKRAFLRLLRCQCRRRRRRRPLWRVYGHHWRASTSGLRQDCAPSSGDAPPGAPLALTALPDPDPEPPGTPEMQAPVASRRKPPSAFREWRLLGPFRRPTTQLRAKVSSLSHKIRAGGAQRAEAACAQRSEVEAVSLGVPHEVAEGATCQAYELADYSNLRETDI

B2 bradykinin receptor = biological target: T2, B2 bradykinin receptor (Homo sapiens, UniProt P30411); type: cell membranes, Membrane; settings: chem-1; also: in other assays of this panel Not Active means under 50% inhibition at 10 µM
T2 sequence (P30411 whole entry): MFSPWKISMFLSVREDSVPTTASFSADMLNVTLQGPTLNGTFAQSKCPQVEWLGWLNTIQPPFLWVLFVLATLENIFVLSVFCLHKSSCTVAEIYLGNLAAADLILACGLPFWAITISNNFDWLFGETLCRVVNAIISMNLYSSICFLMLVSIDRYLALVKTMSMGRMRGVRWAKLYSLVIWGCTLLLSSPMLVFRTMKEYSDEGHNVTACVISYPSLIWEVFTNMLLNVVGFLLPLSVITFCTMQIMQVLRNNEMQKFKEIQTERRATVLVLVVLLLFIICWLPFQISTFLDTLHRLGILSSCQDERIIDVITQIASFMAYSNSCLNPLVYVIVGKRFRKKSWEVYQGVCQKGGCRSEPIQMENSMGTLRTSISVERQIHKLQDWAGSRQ

[2] = biological target: T3, 5-hydroxytryptamine receptor 2C (Homo sapiens, UniProt P28335); test: DRUGMATRIX: Serotonin (5-Hydroxytryptamine) 5-HT2C radioligand binding (ligand: [3H] Mesulergine); type: cell membranes, CHO-K1, Membrane; settings: cho-k1; Not Active = under 50% inhibition at 10 µM
T3 sequence (P28335 whole entry): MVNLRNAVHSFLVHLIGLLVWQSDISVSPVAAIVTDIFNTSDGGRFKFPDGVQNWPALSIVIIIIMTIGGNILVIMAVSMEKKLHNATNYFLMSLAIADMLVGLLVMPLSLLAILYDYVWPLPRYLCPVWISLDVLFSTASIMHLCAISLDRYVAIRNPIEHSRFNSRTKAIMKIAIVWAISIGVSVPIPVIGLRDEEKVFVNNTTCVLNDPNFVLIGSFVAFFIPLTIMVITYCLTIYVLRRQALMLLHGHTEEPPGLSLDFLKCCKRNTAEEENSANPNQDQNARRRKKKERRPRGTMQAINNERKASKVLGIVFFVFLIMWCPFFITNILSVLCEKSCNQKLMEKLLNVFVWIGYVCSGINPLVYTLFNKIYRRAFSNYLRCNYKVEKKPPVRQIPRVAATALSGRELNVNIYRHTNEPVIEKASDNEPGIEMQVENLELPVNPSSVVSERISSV

[3] = DRUGMATRIX: GABAA, Flunitrazepam, Central radioligand binding (ligand: [3H] Flunitrazepam); type: cell membranes, Rattus norvegicus, Wistar, Brain, Membrane; settings: Not Active = under 50% inhibition at 10 µM
[4] = DRUGMATRIX: Glutamate, AMPA radioligand binding (ligand: [3H] AMPA); type: cell membranes, Rattus norvegicus, Wistar, Cerebral cortex, Membrane; settings: Not Active = under 50% inhibition at 10 µM
Progesterone receptor = biological target: T4, Progesterone receptor (Bos taurus, UniProt Q690N0); test: DRUGMATRIX: Progesterone radioligand binding (ligand: [3H] R-5020); type: tissue-based, Uterus; settings: Not Active = under 50% inhibition at 10 µM
T4 sequence (Q690N0 whole entry): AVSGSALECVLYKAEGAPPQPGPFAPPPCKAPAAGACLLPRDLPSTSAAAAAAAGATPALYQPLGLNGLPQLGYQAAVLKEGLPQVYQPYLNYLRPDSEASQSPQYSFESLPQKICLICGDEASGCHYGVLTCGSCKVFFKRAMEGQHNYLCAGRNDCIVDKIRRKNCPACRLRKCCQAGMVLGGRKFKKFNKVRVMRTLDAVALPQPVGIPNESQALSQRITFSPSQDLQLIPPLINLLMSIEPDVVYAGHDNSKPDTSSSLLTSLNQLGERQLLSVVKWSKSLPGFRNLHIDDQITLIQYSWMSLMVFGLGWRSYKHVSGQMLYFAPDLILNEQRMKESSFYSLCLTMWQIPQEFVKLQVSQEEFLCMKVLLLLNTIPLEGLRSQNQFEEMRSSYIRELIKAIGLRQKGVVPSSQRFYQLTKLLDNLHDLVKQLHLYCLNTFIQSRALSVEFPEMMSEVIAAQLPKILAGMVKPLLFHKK

Interstitial collagenase = biological target: T5, Interstitial collagenase (Homo sapiens, UniProt P03956); type: tissue-based, Rheumatoid synovial fibroblasts;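 also: MMP-1 enzyme inhibition assay using a peptide substrate; in other assays of this panel Not Active means under 50% inhibition at 10 µM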
T5 sequence (P03956 whole entry): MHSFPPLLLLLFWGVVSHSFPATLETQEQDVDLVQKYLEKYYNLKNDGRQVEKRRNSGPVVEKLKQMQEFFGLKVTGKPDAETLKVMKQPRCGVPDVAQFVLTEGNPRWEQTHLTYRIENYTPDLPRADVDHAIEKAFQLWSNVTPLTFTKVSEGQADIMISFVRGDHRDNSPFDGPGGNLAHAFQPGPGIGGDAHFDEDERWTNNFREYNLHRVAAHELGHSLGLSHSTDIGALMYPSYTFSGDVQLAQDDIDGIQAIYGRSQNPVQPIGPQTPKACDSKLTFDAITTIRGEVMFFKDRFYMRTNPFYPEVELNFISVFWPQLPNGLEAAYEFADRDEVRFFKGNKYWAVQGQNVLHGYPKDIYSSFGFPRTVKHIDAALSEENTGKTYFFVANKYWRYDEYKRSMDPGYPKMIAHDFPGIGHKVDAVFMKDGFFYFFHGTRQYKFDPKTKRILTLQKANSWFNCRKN

[5] = biological target: Tyrosine-protein kinase Lck (Homo sapiens, UniProt P06239); test: DRUGMATRIX: Protein Tyrosine Kinase, LCK enzyme inhibition (substrate: Poly(Glu:Tyr)); type: cell-based, Insect cells; settings: insect cells; Not Active = under 50% inhibition at 10 µM
Chain of Tyrosine-protein kinase Lck (P06239 whole entry): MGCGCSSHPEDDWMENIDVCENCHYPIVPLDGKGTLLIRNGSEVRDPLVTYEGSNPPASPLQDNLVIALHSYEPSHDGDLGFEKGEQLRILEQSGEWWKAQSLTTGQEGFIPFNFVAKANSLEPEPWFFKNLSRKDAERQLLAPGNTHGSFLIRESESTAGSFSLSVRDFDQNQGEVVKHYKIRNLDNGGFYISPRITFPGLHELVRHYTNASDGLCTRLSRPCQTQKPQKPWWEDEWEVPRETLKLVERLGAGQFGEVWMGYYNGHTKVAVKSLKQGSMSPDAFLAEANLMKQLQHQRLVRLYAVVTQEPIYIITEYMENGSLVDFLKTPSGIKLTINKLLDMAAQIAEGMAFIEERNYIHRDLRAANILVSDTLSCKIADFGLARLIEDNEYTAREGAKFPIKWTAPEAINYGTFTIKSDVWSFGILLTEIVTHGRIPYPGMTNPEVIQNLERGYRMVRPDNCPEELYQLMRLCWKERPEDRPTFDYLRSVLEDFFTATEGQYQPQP

Nc1ccc(S(=O)(=O)Nc2ccnn2-c2ccccc2)cc1 [SULFAPHENAZOLE]
Not Active: IC50 [1] | IC50 (B2 bradykinin receptor) | IC50 [2] | IC50 [3] | Ki [3] | IC50 [4] | Ki [4] | IC50 (Progesterone receptor) | IC50 (Interstitial collagenase) | IC50 [5]

C=CC[C@@H]1/C=C(\C)C[C@H](C)C[C@H](OC)[C@H]2O[C@@](O)(C(=O)C(=O)N3CCCC[C@H]3C(=O)O[C@H](/C(C)=C/[C@@H]3CC[C@@H](O)[C@H](OC)C3)[C@H](C)[C@@H](O)CC1=O)[C@H](C)C[C@@H]2OC [TACROLIMUS ANHYDROUS]
Not Active: IC50 [1] | IC50 (B2 bradykinin receptor) | IC50 [2] | IC50 [3] | Ki [3] | IC50 [4] | Ki [4] | IC50 (Progesterone receptor) | IC50 (Interstitial collagenase) | IC50 [5]

CC1CN(c2cc3c(cc2F)c(=O)c(C(=O)O)cn3-c2ccc(F)cc2F)CCN1 (stereo not given) [TEMAFLOXACIN]
Not Active: IC50 [1] | IC50 (B2 bradykinin receptor) | IC50 [2] | IC50 [3] | Ki [3] | IC50 [4] | Ki [4] | IC50 (Progesterone receptor) | IC50 (Interstitial collagenase) | IC50 [5]

CC(C)(C)NCC(O)c1cc(O)cc(O)c1 (stereo not given) [TERBUTALINE]
Not Active: IC50 [1] | IC50 (B2 bradykinin receptor) | IC50 [2] | IC50 [3] | Ki [3] | IC50 [4] | Ki [4] | IC50 (Progesterone receptor) | IC50 (Interstitial collagenase) | IC50 [5]

CN(C)[C@@H]1C(O)=C(C(N)=O)C(=O)[C@@]2(O)C(O)=C3C(=O)c4c(O)cccc4[C@@](C)(O)[C@H]3C[C@@H]12 [TETRACYCLINE]
Not Active: IC50 [1] | IC50 (B2 bradykinin receptor) | IC50 [2] | IC50 [3] | Ki [3] | IC50 [4] | Ki [4] | IC50 (Progesterone receptor) | IC50 (Interstitial collagenase) | IC50 [5]

c1ccc2[nH]c(-c3cscn3)nc2c1 [THIABENDAZOLE]
Not Active: IC50 [1] | IC50 (B2 bradykinin receptor) | IC50 [2] | IC50 [3] | Ki [3] | IC50 [4] | Ki [4] | IC50 (Progesterone receptor) | IC50 (Interstitial collagenase) | IC50 [5]

Cc1ccc(C(=O)C(C)CN2CCCCC2)cc1 (stereo not given) [TOLPERISONE]
Not Active: IC50 [1] | IC50 (B2 bradykinin receptor) | IC50 [2] | IC50 [3] | Ki [3] | IC50 [4] | Ki [4] | IC50 (Progesterone receptor) | IC50 (Interstitial collagenase) | IC50 [5]

NC(CO)(CO)CO [TROMETHAMINE]
Not Active: IC50 [1] | IC50 (B2 bradykinin receptor) | IC50 [2] | IC50 [3] | Ki [3] | IC50 [4] | Ki [4] | IC50 (Progesterone receptor) | IC50 (Interstitial collagenase) | IC50 [5]

COc1cc(C(=O)NC2CCCNC2)cc(OC)c1OC (stereo not given) [TROXIPIDE]
Not Active: IC50 [1] | IC50 (B2 bradykinin receptor) | IC50 [2] | IC50 [3] | Ki [3] | IC50 [4] | Ki [4] | IC50 (Progesterone receptor) | IC50 (Interstitial collagenase) | IC50 [5]

CC(C)[C@H](N)C(=O)OCCOCn1cnc2c(=O)nc(N)[nH]c21 [VALACYCLOVIR]
Not Active: IC50 [1] | IC50 (B2 bradykinin receptor) | IC50 [2] | IC50 [3] | Ki [3] | IC50 [4] | Ki [4] | IC50 (Progesterone receptor) | IC50 (Interstitial collagenase) | IC50 [5]
